{"source": "patent US9351947B2", "about": "“Use of catecholamines and related compounds as anti-angiogenic agents” (National Research Council of Canada, priority 2007, dated 2016)", "key": {"[1]": {"conditions": "58 μg/kg intravenously, dogs; cited from earlier work"}, "[2]": {"conditions": "topical administration of up to 20%, human eye; cited from earlier work"}, "[3]": {"test": "Body weight of rats with eye drop treatment", "type": "in vivo, Sprague-Dawley rats", "text": "Prevention of diabetic retinopathy by (S)-isoproterenol […] drop was studied using a rat model. […] Animal weights were monitored every week."}, "HUVECs [4]": {"system": "HUVECs", "test": "Matrigel endothelial cell capillary-tube formation assay", "type": "cell-based, human", "description": "HUVECs were purchased from Cedarlane Laboratories (Burlington, Canada) and maintained in Endothelial Cell Basal Medium-2 (EBM-2) supplemented with EGM-2 growth factor mixture (Clonetics) and 2% Foetal bovine serum. The cells were cultured at 37° C. under a humidified 95%/5% (v/v) mixture of air and CO2.\nMatrigel endothelial cell tube formation assays were performed using BD Matrigel™ (Becton, Dickinson). BD Matrigel™ was thawed at 4° C., and 150 μL were quickly added to each well of a 48-well plate and allowed to solidify for 60 min at 37° C. HUVECs (7×10^4 cells/mL) In EC basal medium-2 (EBM-2) were seeded 250 μL per well onto the surface of the solid BD Matrigel™ in the presence of the compounds to be tested. The cells were incubated for 22 h at […] in a 5% CO2 incubator. Tube formation was monitored by using a Leitz Labovert (Leitz, Wetzlar, Germany) inverted microscope. Two randomly selected two microscopic fields were photographed with a digital camera (Nikon, COOLPICKS 995). The total length of tube structures in each photograph was measured using ImageJ™ free software (http://rsb.info.nih.gov/ij/) and was normalized to that of control with no test compound. Each reported value represents the average of total six photographs from three independent experiments."}, "[5]": {"conditions": "Groups I vs II and III vs IV", "procedure": "Two-month-old male Sprague-Dawley rats were purchased from Charles River, Canada. They were housed in the Biotechnology Research Institute (BRI)-animal facility. […] Diabetes was induced in male Sprague-Dawley rats weighing approximately 200 to 250 g by a single intraperitoneal injection of the beta-cell toxin, Streptozotocin (STZ) (Sigma, St. Louis, Mich.), at a dose of 60 mg/kg body weight in 0.1M citrate buffer pH 4.5. Non-diabetic control rats received citrate buffer only.\nOne week following induction of diabetes, glucose levels were determined in the blood sampled from the tail vein using a blood glucose monitoring system (Ascensia ELITE Blood Glucose Meter, Bayer Inc, Toronto, ON, Canada). Since the limit of detection of the blood glucose meter was 33 mM, any value above that has been assigned a maximum value of 35 mM. Only animals with blood glucose levels higher than 15 mM were retained in the study.\nEye drops or vehicle were administered twice a day, seven days a week, on the cornea of different groups of rats, with a minimum interval of 7 h between the two treatments. To promote weight gain and limit hyperglycemia, diabetic rats were injected sub-cutaneously with 2 IU ultralente insulin (Humulin, Eli Lilly, Toronto, ON, Canada) three times a week. Animal weights were monitored every week."}, "[6]": {"conditions": "humans, cited from earlier work"}, "[7]": {"conditions": "mouse, in vivo, iv; cited from earlier work"}, "[8]": {"test": "Optical stability (racemization) in eye drop formulations, 10 days at 55° C., chiral HPLC", "type": "physicochemical", "conditions": "for % optical purity: 1.7 mg/mL, pH 6.0, starting material 99.90%", "description": "The optical isomers of (S)-isoproterenol bitartrate and (S)-isoproterenol dipivalate hydrochloride were separated by HPLC using Shiseido chiral CD-Ph column (250×4.6 mm; 5 μm; isocratic 60:40 of 0.5 M sodium perchlorate/water and acetonitrile; flow rate, 1.0 mL/min). The elution profile was monitored by the absorption at 223 nm for isoproterenol bitartrate and 264 nm for isoproterenol dipivalate hydrochloride. The optical impurities were quantitated by the absorbance at 223 nm for isoproterenol bitartrate and 264 nm for isoproterenol dipivalate hydrochloride and by using a curve fitting software TABLECurve2D (Systat). The impurities of (R)-isoproterenol bitartrate and (R)-isoproterenol dipivalate hydrochloride were estimated as […], respectively. Thus, the racemization induced during synthesis and purification was minimal, if it occurred.\nTable 2 describes the optical purities of (S)-isoproterenol and (S)-isoproterenol dipivalate after incubation in various eye drop formulations for 10 days at 55° C. and compared with those before incubation. The incubation for 10 days at 55° C. corresponds to the incubation for 167 days at 22° C."}, "[9]": {"conditions": "17.6% eye drop, rabbit; cited from earlier work"}, "[10]": {"conditions": "large intravenous dose; cited from earlier work"}, "HUVECs [11]": {"system": "HUVECs", "test": "Invasion of HUVECs through Matrigel-coated filter (Matrigel Invasion Chambers)", "type": "cell-based, human", "description": "HUVECs were purchased from Cedarlane Laboratories (Burlington, Canada) and maintained in Endothelial Cell Basal Medium-2 (EBM-2) supplemented with EGM-2 growth factor mixture (Clonetics) and 2% Foetal bovine serum. The cells were cultured at 37° C. under a humidified 95%/5% (v/v) mixture of air and CO2. Invasion of endothelial cells was measured using BD BioCoatTM Growth Factor Reduced MatrigelTM Invasion Chambers (Beckton-Dickinson; […]). EBM-2 medium (500 μL each) was placed into the lower wells. HUVECs (2.5×10^4) in EBM-2 serum-free medium (500 μL) were seeded into each of the upper wells and incubated in the presence of a test compound. HUVECs were allowed to migrate for 36 h at 37° C. in an atmosphere of 95% air/5% CO2. HUVECs that remained on the upper surface of the filter were removed using a cotton swab. HUVECs that had migrated to the lower surface of the filters were fixed with methanol, stained with 0.1% crystal violet/20% (v/v) methanol and examined using a Leitz Labovert (Leitz, Wetzlar, Germany) inverted microscope after mounting on a slide. Three randomly selected microscopic fields were digitally captured using a Nikon […] 995 digital camera and the number of HUVECs in each photograph were directly counted. Each reported value represents the average and standard deviation of a total […] from two independent experiments."}}, "data": [{"smiles": "CC(C)NCC(O)c1ccc(OC(=O)C(C)(C)C)c(OC(=O)C(C)(C)C)c1", "note": "(racemic) [(R,S)-isoproterenol dipivalate]", "values": [{"measurement": "cardiovascular responses", "setting": "[1]", "result": "the same responses as those of (R,S)-isoproterenol"}]}, {"smiles": "CC(C)NC[C@@H](O)c1ccc(O)c(O)c1.Cl", "note": "[(S)-isoproterenol hydrochloride]", "values": [{"measurement": "lowering of intra-ocular pressure", "setting": "[2]", "result": "did not show any indication to lower intra-ocular pressure"}]}, {"smiles": "CC(C)NC[C@@H](O)c1ccc(O)c(O)c1", "note": "[(S)-isoproterenol]", "values": [{"measurement": "effect on weight gain/loss", "setting": "[3]; diabetic rats, Group IV vs Group III", "result": "no effect"}, {"measurement": "effect on weight gain/loss", "setting": "[3]; non-diabetic rats, Group II vs Group I", "result": "no effect"}, {"measurement": "anti-angiogenic activity at 95% w/w optical purity", "setting": "HUVECs [4]; 95% w/w optically pure, total isoproterenol 20 μM, FIG. 3", "result": "in the transition from non-antianglogenic to anti-angiogenic"}, {"measurement": "potency (inhibition of capillary tube formation)", "setting": "HUVECs [4]; angiogenic assay condition used in FIG. 1, 1-50 μM, 22 h", "result": "around 10 μM"}, {"measurement": "Activity (anti-angiogenicity)", "setting": "HUVECs [4]; measured at 20 μM, HUVECs on Matrigel, 22 h", "result": "anti-angiogenic activity"}, {"measurement": "optical purity of (S)-isoproterenol at which anti-angiogenic activity was observed", "setting": "HUVECs [4]; various ratios of (S)- and (R)-isoproterenol, total 20 μM, FIG. 3", "result": "at least 97 % w/w"}, {"measurement": "effect on the blood glucose level and diabetes", "setting": "[5]", "result": "does not affect"}, {"measurement": "side effects of topically applied 10% solution", "setting": "[6]; 10%, topical", "result": "brief mild conjunctival hyperemia and irritation"}, {"measurement": "side effects of 20% eye drop", "setting": "[6]; 20% eye drop", "result": "marked conjunctival hyperemia and mild miosis that persisted for several hours"}, {"measurement": "LD50", "setting": "[7]", "result": "113 ± 5", "unit": "mg/kg"}, {"measurement": "conversion to the (R)-isoform", "setting": "[8]; 10 days at 55° C.", "result": 2.55, "unit": "%"}, {"measurement": "% optical purity", "setting": "[8]; 10 days at 55° C., NaCl 8 mg/mL, Benzalkonium chloride 0.04 mg/mL, Tween 80 2.5 mg/mL", "result": 96.68, "unit": "%"}, {"measurement": "% optical purity", "setting": "[8]; 10 days at 55° C., Povidone 2 mg/mL, Benzalkonium chloride 0.04 mg/mL, D-Mannitol 54.7 mg/mL", "result": 97.90, "unit": "%"}, {"measurement": "% optical purity", "setting": "[8]; 10 days at 55° C., Povidone 2 mg/mL, D-Mannitol 54.7 mg/mL, Chlorobutanol 1 mg/mL, 2-hydroxypropyl cyclodextrin 10.1 mg/mL", "result": 97.56, "unit": "%"}, {"measurement": "% optical purity", "setting": "[8]; 10 days at 55° C., Povidone 2 mg/mL, NaCl 8 mg/mL, Benzalkonium chloride 0.04 mg/mL, 2-hydroxypropyl cyclodextrin 10.1 mg/mL", "result": 97.26, "unit": "%"}, {"measurement": "average optical purity after incubating 10 days at 55° C.", "setting": "[8]; average over the eye drop formulations", "result": "97.35±0.52", "unit": "%"}, {"measurement": "optical purity after 655 days of storage at room temperature", "setting": "[8]; extrapolated, from 99.90%", "result": 90, "unit": "%"}, {"measurement": "systemic effects (heart rate, blood pressure, hematologic or serum chemistry values, necropsy)", "setting": "[9]", "result": "no systemic effects"}, {"measurement": "effects on blood pressure and pulse rate", "setting": "[10]", "result": "only slight and transient effects"}, {"measurement": "reduction of the invasion of HUVECs in Matrigel", "setting": "HUVECs [11]; 20 μM", "result": 60, "unit": "%"}, {"measurement": "Activity (anti-invasion)", "setting": "HUVECs [11]; measured at 20 μM, HUVECs", "result": "Anti-invasive"}]}]}
